Counter-ions that a name gives are not always drawn. Blank lines part the entries; values can stand above or below the compound they belong to.
Key:
[1] = test system: organotypic cortex-VTA cultures; experiment: γ-oscillations and neuronal avalanches in organotypic cortex-VTA co-cultures; format: cell-based, rat
Procedure: Cortical extracellular neuronal activity was recorded in organotypic cortex-VTA cultures using 8×8 multielectrode arrays (FIG. 17A). The activity in the cortical tissue started as isolated single unit activity, which later formed bursts of multi-unit activity in the form of oscillations (FIG. 17B). […] The appearance of oscillatory activity ranged from closely placed isolated LFPs to frank sinusoidal waves lasting from 50 ms to 500 ms. […] LFP amplitudes varied from −10 μV to −1200 μV (mean=−38.2±3.4 μV) and varied between cultures −10.68±0.53 μV to −223.6±19.25 μV (mean high value).
Organotypic co-cultures were prepared from the frontal cortex (EC) and ventral-tegmental area (VTA) isolated from postnatal day 1-2 (PND) old rats. The VTA slices were cut at a thickness of 500 μm and cortex at 350 μm. The culture was done with cortex placed on multielectrode arrays (Multichannel Systems, Reutlingen, Germany) with electrode diameter of 30 μm and interelectrode distance of 200 μm. Cultivation and recording was done in a sterile chamber on the microelectrode array as described above. The culture was kept within the incubator with the rocking movement (˜0.005 Hz) throughout the recording. Spontaneous extracellular signals were recorded at a sampling frequency of 4 kHz with 1 kHz low pass filtering continuously for an average of 4±1 hrs. The temperature inside incubator was maintained at 35±0.5° C.
Neuronal oscillatory activity was analyzed by calculating the power spectrum from periods of prominent LFP activity, i.e. LFP bursts using a discrete Fast Fourier Transform in Matlab (Mathworks). Periods of prominent LFP activity were identified by negative threshold crossing at −3 SD from electrode noise. When calculating the average power spectrum for an activity period on the array, the duration for selecting activity periods was taken as the average duration of individual oscillatory activity in each recording session. While taking activity regions care was taken to avoid recalculation of spectra from the same time period in same electrode. The power spectrum of noise for each electrode was separately calculated from 20 separate recording regions where no activity was present and the power in the noise was subtracted from that in the signal. The selected signal region was filtered with a Hanning window (a cosine window defined by: w(k+1)=0.5*(1−cos(2*pi*(k/(n−1)))), k=0, 1, 2 . . . n−1) before calculating the power spectrum. The power spectrum of each activity period was calculated and averaged from all the active electrodes in each activity period. Then the power spectrum was averaged over the entire 4 hr recording.
To test the hypothesis, that neuronal avalanches might persist in the presence of oscillatory activity, the signals from all channels were analyzed for LFPs occurring with a peak 3×SD above noise (FIG. 19). This yielded a raster with time of occurrence and peak amplitude of LFPs (FIGS. 19B,C). The data was binned at Δtavg obtained from cross correlation analysis. […] Plotting the probability of occurrence of avalanches of different sizes against avalanches in log-log coordinates of different sizes yielded a curve with slope α=−1.5 (FIGS. 19D,E; mean=−1.53±0.02, n=9).
About 3 μl of the stock solution was added to the ˜600 μl of culture media in the multielectrode array chamber to reach a final concentration of 10 μM. […] The concentration of DMSO in the working solution was limited to 0.01%. Each addition of the drug was followed by 4 hours of continuous recording, after which the culture was washed by replacing the culture medium with 50% of conditioned media (collected from the same culture the day before drug application) and 50% of fresh, unconditioned medium, followed by 4-8 hrs of recording.

[2] = test system: acute slices of rat medial prefrontal cortex (mPFC); experiment: Neuronal avalanche (NAS) assay, microelectrode array LFP recording in acute mPFC slices;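 note: 60-electrode array recordings, low-pass filtered at 200 Hz and sampled at 1 kHz, nLFPs detected below −3 SD of electrode noise, avalanches as runs of active bins between silent bins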
Procedure: Continuous extracellular signals v(t) can be recorded between 0.1 Hz and 3000 Hz, low-pass filtered at 200 Hz (Butterfly-filter, Multichannel Systems), digitised at a rate of 1 kHz (Δt=1 ms) and stored. For each electrode k (k=[1, nelec], nelec=60), the electrode noise of v(t) can be estimated by calculating the mean and standard deviation (SD) of v(t) from the total duration of the recording, Ttot, which can range, for example, between 40-60 min. […] Negative LFP peaks (nLFPs) at electrode k can be detected by negative threshold crossing at −3 SD of electrode noise and can be characterized by the time and absolute amplitude of the negative LFP peak, A^k(ti), before v(t) returned to threshold. More precisely, at a given temporal resolution Δt, nLFPs at electrode k can be represented by a vector of length nmax, where nmax is an integer value for which Ttot=nmax·Δt. This vector can contain zeros, except for positions ti=i·Δt, iε[1, . . . , nmax,] with values A^k(ti) in μV.
A neuronal avalanche is a sequence of consecutive time bins of width Δt with at least one nLFP, which is preceded and terminated by at least one time bin with no activity (FIG. 3A). The absence of activity for a period of Δt thus indicates the end of an avalanche. If the decision of whether an avalanche has ended is made too early (Δt too short), avalanches will be terminated prematurely; if the Δt chosen is too long, avalanches will be falsely concatenated. If avalanches did simply propagate like a wave, an approximation for Δt (Δtavg) could be obtained by averaging the time between one nLFP at one electrode and the next nLFP at neighbouring electrodes only. Because nLFPs in avalanches occur in irregular patterns across electrodes on the array, a pair wise approximation can be used in order to assess the average time that is required for nLFPs to propagate between electrodes.
In order to calculate Δtavg, the distribution of time intervals T for successive nLFPs on the array can be obtained. Starting with the first nLFP, e.g. A^k(ti) on electrode k at time ti, the next occurrence of an nLFP on the array can be searched for, e.g. A^l(tj) on electrode l at time tj, and calculated the time interval Tm-Δt^k,l, where m=(tj−ti)/Δt. This process can be repeated for all occurrences of nLFPs on electrode k and for all electrodes. The resulting values can be combined into one density distribution P(TmΔt), which captures how often successive nLFPs occurred with a particular delay m·Δt on the array irrespective of their spatial location. Consequently, the average value of T provides an approximation for Δtavg, the average time to wait before making a decision whether an nLFP propagated on the array. However, this interval distribution is highly skewed, particularly when one compares the last nLFP with the first nLFP in successive avalanches that are separated by long times. In order to exclude time intervals from successive nLFPs that are barely correlated, a cut-off time τmax can be calculated for which the average crosscorrelation function (ccf) for pair wise electrode comparisons Rccf(τ) had decayed to negligible values. The ccf between electrodes k, l (Rccf^k,l(τ)) can be calculated as
Because the exemplary maximal sampling rate was 1 kHz, the actual Δt^avg to calculate avalanches can be taken as the nearest multiple of Δt=1 ms. In short, after Δtavg was calculated for a particular network and experimental condition, the extracellular signals v(t) can be re-sampled at the new temporal resolution of Δtavg. Time and amplitude of nLFP peaks can be extracted as A^k(ti), where ti=i·Δtavg, iε[1, n′max] and Ttot=n′max·Δtavg. Avalanches can be determined on the downsampled data set at bin width Δtavg.
Avalanche sizes can be calculated in two different ways (see also FIG. 3A).

[3] = test system: organotypic cortex cultures; experiment: Neuronal avalanche assay in organotypic cortex slice cultures on microelectrode arrays; format: cell-based, rat
Procedure: Organotypic cultures from slices of rat cortex were prepared in accordance with NIH guidelines. Coronal sections from rat brains (Sprague Dawley, Taconic Farms, Md., USA) at postnatal day 0-2 were cut at 350 μm thickness. A coronal slice section containing dorsal or dorsolateral cortex (˜1.5 mm deep and ˜2-3 mm wide) was positioned on a multi-electrode array (Multichannelsystems, Reutlingen, Germany). The array covered ˜50-70% of the cortical tissue with the bottom row aligned to infragranular layers and the upper rows extending beyond layer I. This arrangement allowed for the dorsal expansion of the cortical slice on the multielectrode array, which results from the development of superficial layers during the first weeks postnatal in rat cortex. The slices were attached to the pre-cleaned, poly-D-lysine coated multielectrode array-surface by coagulation with 15 μl chicken plasma and 15 μl of bovine thrombin (Sigma St. Louis, Mo., USA), after which cultures were grown at 35.5° C. in normal atmosphere in a culture medium consisting of 50% Basal Medium Eagle, 25% Hanks Balanced Salt Solution and 25% horse serum, 0.5% glucose, and 0.5 mM L-glutamine (all Gibco, Grand Island, N.Y., USA). Photographs taken at 1-3 DIV and after recording sessions confirmed the position of recording electrodes in the cortical tissue and organotypic cortex slice culture.
A custom-built incubator was used in order to allow for long-term pharmacological experiments and repetitive, sterile recording sessions at different developmental stages under identical recording and culturing conditions. The chamber design and preparation of the multielectrode array for recordings has been described in more detail previously. In short, each multielectrode array consisted of a square glass plate (5×5 cm, 1 mm thickness) with a square array of 60 microelectrodes made of titanium nitride (8×8 grid with the corners missing) at its center (Egert et al., 1998). Titanium nitride electrodes were flat and disk-shaped with a diameter of 30 μm, an inter electrode spacing of 200 μm, and were attached to gold leads that ended at the edge of the glass square and served as contacts for the amplifier head stage. A circular glass well (˜10 mm diameter) with a Teflon cap was centered and cured to the glass plate by Sylgard® functioned as a tight-sealed, sterile culture chamber.
Multielectrode arrays were placed onto storage trays inside the incubator and gently rocked. The temperature inside incubator was maintained at 35±0.5° C. For optimal culture survival and culture growth a rocking trajectory was used that approximated a sinusoidal function (˜400 s cycle time) with brief halts of ˜10 s at the steepest angle before reversing directions. At the points of direction reversal, cultures were exposed to the inner chamber atmosphere. […] After 3 and 27 days in vitro (DIV), […] of mitosis inhibitor was added for 24 hr ([…]; calculated to final concentration; all Sigma). Medium was changed every 3-5 days. No antibiotics were used throughout cultivation and recording periods.
For recordings, individual multielectrode arrays were placed into the recording head stage (MultiChannelSystems, Inc.), which was affixed to a second tray within the incubator and had the exact same motion as the primary storage tray. This allowed recording in culture medium under conditions identical to growth conditions. The exchange between recording and storage location for each multielectrode array took few seconds and was done without interruption of the rocking cycle. Activity occurred spontaneously in organotypic cortex cultures and was recorded up to 5 hrs giving rise to >10,000 avalanches per network.
Overall, negative local field potentials (nLFPs) occurred at 82±5% of the electrodes in the acute slices and 88±5% of the electrodes in cultures. Data was sampled at 1 kHz and low pass filtered at 50 Hz. […]

[4] = test system: organotypic cortex-VTA cultures; experiment: γ-oscillations and neuronal avalanches in organotypic cortex-VTA co-cultures; format: cell-based, rat; remark: listed apart in the source
[5] = similar for each dopamine concentration, + 3 μM NMDA, n=26 slices

Compound: CN1CCc2cc(Cl)c(O)cc2[C@@H](c2ccccc2)C1 (racemic) [SCH23390, R(±)-7-chloro-8-hydroxy-3-methyl-1-phenyl-2,3,4,5-tetrahydro-1H-3-benzazepine hydrochloride]
shift of peak frequency in the high frequency band from its original value ([1]; SCH23390 10 μM): 59±1% | reduction of power of dominant frequencies between 40-120 Hz ([1]; SCH23390 10 μM, n=5): more than 50% | slope α of avalanche size distribution ([1]; SCH23390 10 μM, n=5): −1.60±0.04 | slope αLFP for washout of antagonist ([2]; after washout of 10 μM SCH23390, 30 μM dopamine + 3 μM NMDA): −1.55±0.06

network state of induced avalanche dynamics ([2]; clozapine 100 nM): epileptic
Compound: CN1CCN(C2=Nc3cc(Cl)ccc3Nc3ccccc32)CC1 [Clozapine, clozapine]
slope αele of avalanche size distribution ([2]; clozapine 100 nM): −2.07±0.08 | ΔPmax (likelihood of large avalanches beyond linear regression) ([2]; clozapine 100 nM): 0.006 | total duration of induced LFP activity ([2]; clozapine 100 nM bath-applied): ~40 min | initial slope αLFP of avalanche size distribution ([2]; clozapine 100 nM, Δtavg=1 ms, range 5-60 μV): −2.00±0.13

Compound: O=[N+]([O-])c1cc2nc(O)c(O)nc2cc1[N+](=O)[O-] [DNQX]
slope α of avalanche size distribution ([3]; DNQX 3 μM bath-applied, 6 cortical cultures, control −1.5): ~−2

Compound: CN[C@H](CC(=O)O)C(=O)O [NMDA, N-Methyl-D-Aspartate]
nLFP and avalanche activity induced by NMDA alone ([2]; 3 μM NMDA alone in the presence of 10 μM SCH23390, n=7): negligible nLFP and avalanche activity

Compound: CN1[C@@H]2CC[C@H]1C[C@@H](OC(=O)C(CO)c1ccccc1)C2 (stereo partly drawn) [atropine]
neuronal avalanche induction with muscarinergic receptors blocked ([2]; atropine 10 μM + 3 μM NMDA + 3 μM SKF38393): did not block neuronal avalanche induction | power law slope αLFP with muscarinergic receptors blocked ([2]; atropine 10 μM + 3 μM NMDA + 3 μM SKF38393, n=6): −1.696±0.045

Compound: NCCc1ccc(O)c(O)c1 [dopamine]
maximal area sele within the power law regime ([2]; 30 μM dopamine + 3 μM NMDA): ~18 electrodes | optimal bin width Δtavg ([2]; 30 μM dopamine + 3 μM NMDA): 2.7 ± 0.2 ms | slope αLFP of avalanche size distribution (summed nLFP amplitudes) ([2]; 30 μM dopamine + 3 μM NMDA bath-applied, sLFP=6-300 μV): −1.50±0.03 | τmax for which Rccf dropped below 10^−4 ([2]; 30 μM dopamine + 3 μM NMDA, all n=6 slices): 60 ms | cortical layer localisation of induced avalanche activity ([2]; 30 μM dopamine + 3 μM NMDA, cortical depth 200-900 μm): strongest in superficial layers II/III | propagation velocity for nLFPs on the array ([2]; 30 μM dopamine + 3 μM NMDA, inter-electrode distance 200 μm): ~74 mm/s | slope αele of avalanche size distribution (number of active electrodes) ([2]; 30 μM dopamine + 3 μM NMDA, sele=1-18 electrodes): −1.47±0.03 | increase in likelihood of family recurrence beyond chance level ([2]; 30 μM dopamine in the presence of 3 μM NMDA): ~500% | Δtavg, average for all dopamine concentrations ([2]; all dopamine concentrations tested + 3 μM NMDA, n=26 experiments): 2.7 ± 0.1 ms | mean nLFP peak, rate of nLFPs per electrode and total activity Atot, dependence on dopamine concentration ([2]; dopamine + 3 μM NMDA, inverted-U profile): maximal at moderate concentration of dopamine (30 μM) | slope α of cluster size distribution ([2]; dopamine concentrations lower or higher than 30 μM, + 3 μM NMDA): ~−2 | duration of spontaneous activity [2, 5]: 43 ± 3 min | number of active electrodes [2, 5]: 33±4 electrodes

Compound: CCN1CCCC1CNC(=O)c1cc(S(N)(=O)=O)ccc1OC (stereo not drawn) [sulpiride]
change in γ frequency ([1]; sulpiride 10 μM): without a change in frequency | change of power of γ-activity ([1]; sulpiride 10 μM, n=5): doubled | slope α of avalanche size distribution ([1]; sulpiride 10 μM, n=5): −1.37±0.02

Compound: picrotoxin
initial slope α of avalanche size distribution ([3]; picrotoxin 3 μM (FIG. 24C legend)): ~−2 | over-representation of large avalanches, epileptic vs sub-critical state ([3]; picrotoxin 3 μM vs DNQX 3 μM): ~10 times | decrease in average rate of spontaneous nLFPs ([3]; picrotoxin 5 μM, N=4 cultures): 80±23% | increase of deviations in nLFP waveforms relative to initial nLFP ([3]; picrotoxin 5 μM, first time step): ~3.5 fold | probability of nLFP being larger than nLFP in the preceding time step ([3]; picrotoxin 5 μM, normal conditions 0.5): ~0.58 | increase of deviations in nLFP waveforms relative to initial nLFP ([3]; picrotoxin 5 μM, within 8 time steps): ~6 fold | initial slope α of avalanche size distribution ([3]; picrotoxin 2-3 μM): −1.8 | shape of avalanche size distribution ([3]; picrotoxin 2-3 μM): bimodal distribution | average burst duration in the network ([1]; picrotoxin, n=3 cultures): increases the average burst duration | power in the δ/θ-frequency range ([1]; picrotoxin, single culture): increases the power in the δ/θ-frequency range | shape of avalanche size distribution ([4]; picrotoxin 5 μM): almost bimodal | reduction of γ-oscillations ([4]; picrotoxin 5 μM bath-applied): more than 50% | nLFP and avalanche activity after adding GABAA antagonist ([2]; 10 μM picrotoxin added to activity sustained by 30 μM dopamine + 3 μM NMDA): ceased | maximal time difference between correlated electrodes τmax ([2]; picrotoxin alone 10 μM): 30.5±7.2 | Δtavg ([2]; picrotoxin alone 10 μM): 2.3±0.2 | avalanche rate ([2]; picrotoxin alone 10 μM, n=6): 0.18±0.02 Hz | duration of spontaneous activity ([2]; picrotoxin alone 10 μM, n=6): 28 ± 2 min | nLFP rate ([2]; picrotoxin alone 10 μM, n=6): 0.01±0.001 Hz | total activity Atot ([2]; picrotoxin alone 10 μM, n=6): 5033±719 μV | initial slope αLFP of disinhibited activity ([2]; picrotoxin alone 10 μM, sLFP=15-85): −1.9±0.08 | initial slope αele of disinhibited activity ([2]; picrotoxin alone 10 μM, sele=1-5): −1.97±0.02 | spontaneous avalanche induction with co-applied GABAA antagonist ([2]; picrotoxin co-applied with 3 μM NMDA and 3 μM SKF38393, n=6): prevented spontaneous avalanches induction altogether

Reference: patent publication US8548786B2, “Neuronal avalanche assay” (priority 2005, dated 2013)
